Source: patent US8293979B2, “Weed controller metabolism proteins, genes, thereof and use of the same” (Sumitomo Chemical Company, Limited, priority 2001, dated 2012)

Legend:
[1] = test system: present invention protein (A1); type: in vitro ADME, Streptomyces phaeochromogenes IFO12898; settings: E. coli JM109/pKSN657F cell suspension, compound at 100 ppm, shaking at 30° C., ethyl acetate layer, HPLC
Method: E. coli JM109/pKSN657F was cultured overnight at 37° C. in 3 ml of TB medium containing 50 μg/ml of ampicillin. A milliliter (1 ml) of the obtained culture medium was transferred to 100 ml of TB medium containing 50 μg/ml of ampicillin and cultured at 26° C. When OD660 reached about 0.5, 5-aminolevulinic acid was added to the final concentration of 500 μM, and the culturing was continued. Thirty (30) minutes thereafter, IPTG was added to a final concentration of 1 mM, and there was further culturing for 20 hours.
The cells were recovered from the culture medium, washed with 0.1M tris-HCl buffer (pH7.5) and suspended in 10 ml of 0.1M Tris-HCl buffer containing 1% glucose. Compound (VI) was added to the obtained cell suspension to a final concentration of 100 ppm and that was incubated with shaking at 30° C. At each of 0 hours after and 1 day after the start of shaking, 2 ml of the cell suspension were fractioned. Fifty microliters (50 μl) of 2N HCl were added to each and those were extracted with 2 ml of ethyl acetate. The obtained ethyl acetate layers were analyzed on a HPLC under reaction condition 1. Compared to the concentration of compound (VI) detected from the ethyl acetate layer prepared from the cell suspension at 0 hours after the start of shaking, the concentration of compound (VI) detected from the ethyl acetate later prepared from the cell suspension at 1 day after the start of shaking was lower. Further a peak, which was not detected from the ethyl acetate layer prepared from the cell suspension at 0 hours after the start of shaking, was detected from the ethyl acetate layer prepared from the cell suspension at 1 day after the start of shaking Mass spectrometry of the compound contained in said peak was conducted. […]
Other than utilizing compound (VIII) instead of compound (VI), there was conducted in accordance with the method described in Example 41(6), a culturing of E. coli JM109/pKSN657F, preparation of the cell suspension solution, incubation with shaking of the cell suspension solution to which compound (VIII) was added, reagent preparation from the cell suspension solution and HPLC analysis of the reagents. Compared to the concentration of compound (VIII) detected from the ethyl acetate layer prepared from the cell suspension at 0 hours after the start of shaking, the concentration of compound (VIII) detected from the ethyl acetate layer prepared from the cell suspension at 1 day after the start of shaking was lower. Further two peaks, which were not detected from the ethyl acetate layer prepared from the cell suspension at 0 hours after the start of shaking, were detected from the ethyl acetate layer prepared from the cell suspension at 1 day after the start of shaking Mass spectrometry of the compounds contained in said peaks were conducted. […]

[2] = test system: present invention protein (A11); experiment: Metabolism of compound (X) by the present invention protein (A11), E. coli JM109/pKSN849AF cell suspension; type: in vitro ADME, Streptomyces nogalator IFO13445; settings: compound at 25 ppm, shaking at 30° C., fractioned at 0 hours and 4 days, ethyl acetate layer, HPLC
Method: Each of E. coli JM109/pKSN849AF and E. coli JM109/pKSN2 was cultured overnight at 37° C. in 3 ml of TB culture containing 50 μg/ml of ampicillin. A milliliter (1 ml) of the obtained culture mediums was transferred to 100 ml of TB medium containing 50 μg/ml of ampicillin and cultured at 26° C. When OD660 reached about 0.5, 5-aminolevulinic acid was added to the final concentration of 500 μM, and the culturing was continued. Thirty (30) minutes thereafter, IPTG was added to a final concentration of 1 mM, and there was further culturing for 18 hours.
The cells were recovered from the culture medium, washed with 0.1M tris-HCl buffer (pH7.5) and suspended in 10 ml of 0.1M Tris-HCl buffer containing 1% glucose. […] The obtained ethyl acetate layers were analyzed on a HPLC under reaction condition 1. Compared to the concentration of compound (X) detected from the ethyl acetate layer prepared from the JM109/pKSN2 cell suspension, the concentration of compound (X) detected from the ethyl acetate layer prepared from the JM109/pKSN849AF cell suspension was lower. Further 3 peaks, which were not detected from the ethyl acetate layer prepared from the JM109/pKSN2 cell suspension, were detected from the ethyl acetate layer prepared from the JM109/pKSN849AF cell suspension. […]

In the case of `C=CCOC(=O)C(C)(C)OC(=O)c1cc(-n2c(=O)cc(C(F)(F)F)n(C)c2=O)ccc1Cl` [compound (X)], the “concentration of the compound detected from the cell suspension at 1 day compared to 0 hours after the start of shaking” value [1] is reported as “lower” and the “concentration of the compound detected from the JM109/pKSN849AF cell suspension compared to the JM109/pKSN2 cell suspension” value [2] is reported as “lower”.
